PubChem BioAssay AID1259411 (Chemical Carcinogenesis Research Information System (CCRIS), 2018)
Activity calls are given as the source filed them. No rule for the calls is given here.

Tested on: rodent carcinogenicity bioassays, tumor incidence
Assay: CCRIS carcinogenicity studies
Summary of the method: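 NCI-built, expert-reviewed records of carcinogenicity and related test outcomes (mutagenicity, tumor promotion/inhibition) compiled from published and report sources, historical span 1985-2011, not updated.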

SMILES: O[C@H]1C=Cc2c(ccc3ncccc23)[C@@H]1O
- carcinogen call (Species: MOUSE, Strain/Sex: CD-1/FEMALE, Route: INTRAPERITONEAL, Dose: 0, 5, 10 AND 20 µL OF A 0.05 MOLAR SOLUTION ON DAYS 1, 8 AND 15 OF LIFE RESPECTIVELY (TOTAL DOSE: 1.75 UMOL) (STUDY DURA, Dose: 0, 5, 10 AND 20 µL OF A 0.05 MOLAR SOLUTION ON DAYS 1, 8 AND 15 OF LIFE RESPECTIVELY (TOTAL DOSE: 1.75 UMOL) (STUDY DURA): inactive; negative
- carcinogen call (Species: MOUSE, Strain/Sex: CD-1/MALE, Route: INTRAPERITONEAL, Dose: 0, 5, 10 AND 20 µL OF A 0.05 MOLAR SOLUTION ON DAYS 1, 8 AND 15 OF LIFE RESPECTIVELY (TOTAL DOSE: 1.75 UMOL) (STUDY DURA, Dose: 0, 5, 10 AND 20 µL OF A 0.05 MOLAR SOLUTION ON DAYS 1, 8 AND 15 OF LIFE RESPECTIVELY (TOTAL DOSE: 1.75 UMOL) (STUDY DURA): inactive; negative

SMILES: C/C=C/C=C/C=O
- carcinogen call (Species: MOUSE, Strain/Sex: B6C3F1/FEMALE, Route: GAVAGE, Dose: 0, 30, 60, 120 MG/KG IN CORN OIL 5 D/WK FOR DURATION OF STUDY (STUDY DURATION: 105 WK), Dose: 0, 30, 60, 120 MG/KG IN CORN OIL 5 D/WK FOR DURATION OF STUDY (STUDY DURATION: 105 WK), Tumor Site: Type of Lesion: FORESTOMACH: SQUAMOUS CELL PAPILLOMA, SQUAMOUS CELL CARCINOMA, SQUAMOUS CELL PAPILLOMA OR CARCINOMA): active; positive
- carcinogen call (Species: MOUSE, Strain/Sex: B6C3F1/MALE, Route: GAVAGE, Dose: 0, 30, 60, 120 MG/KG IN CORN OIL 5 D/WK FOR DURATION OF STUDY (STUDY DURATION: 105 WK), Dose: 0, 30, 60, 120 MG/KG IN CORN OIL 5 D/WK FOR DURATION OF STUDY (STUDY DURATION: 105 WK), Tumor Site: Type of Lesion: FORESTOMACH: SQUAMOUS CELL PAPILLOMA, SQUAMOUS CELL CARCINOMA, SQUAMOUS CELL PAPILLOMA OR CARCINOMA): active; positive
- carcinogen call (Species: RAT, Strain/Sex: F344/FEMALE, Route: GAVAGE, Dose: 0, 22.5, 45, 90 MG/KG IN CORN OIL 5 D/WK FOR DURATION OF STUDY (STUDY DURATION: 105 WK), Dose: 0, 22.5, 45, 90 MG/KG IN CORN OIL 5 D/WK FOR DURATION OF STUDY (STUDY DURATION: 105 WK), Tumor Site: Type of Lesion: FORESTOMACH: SQUAMOUS CELL PAPILLOMA): active; positive
- carcinogen call (Species: RAT, Strain/Sex: F344/MALE, Route: GAVAGE, Dose: 0, 22.5, 45, 90 MG/KG IN CORN OIL 5 D/WK FOR DURATION OF STUDY (STUDY DURATION: 105 WK), Dose: 0, 22.5, 45, 90 MG/KG IN CORN OIL 5 D/WK FOR DURATION OF STUDY (STUDY DURATION: 105 WK), Tumor Site: Type of Lesion: FORESTOMACH: SQUAMOUS CELL PAPILLOMA, SQUAMOUS CELL CARCINOMA, SQUAMOUS CELL PAPILLOMA OR CARCINOMA): active; positive

SMILES: O=[N+]([O-])c1cc2ccc3cc4ccccc4c4ccc(c1)c2c34
- carcinogen call (Species: MOUSE, Strain/Sex: B6C3F1/MALE, Route: INTRAPERITONEAL, Dose: 0, 400 NMOL IN 35 µL DMSO ON DAYS 1 (1/7 TOTAL DOSE), 8 (2/7 TOTAL DOSE), AND 15 (4/7 TOTAL DOSE) AFTER BIRTH (STUDY DUR, Tumor Site: Type of Lesion: LIVER: ADENOMA OR CARCINOMA): active; positive

SMILES: CO[C@@H](Cc1ccc(OCCCOc2ccc(Oc3ccccc3)cc2)cc1)C(=O)O
- carcinogen call (Species: Rat, Strain/Sex: F344/N / Female (60/Group), Route: Oral (gavage), Dose: 0, 0.1, 0.3, 1.0 mg/kg bw daily for 104 wk, study duration 104 wk, Dose: 0, 0.1, 0.3, 1.0 mg/kg bw daily for 104 wk, study duration 104 wk, Tumor Site: Type of Lesion: Bladder: carcinoma (0, 0, 2, 8), papilloma (0, 0, 0, 6)): active; positive. study primarily directed to urine characteristics.
- carcinogen call (Species: Rat, Strain/Sex: F344/N / Male (60/Group), Route: Oral (gavage), Dose: 0, 0.3, 1.0, 3.0 mg/kg bw daily for 104 wk, study duration 104 wk, Dose: 0, 0.3, 1.0, 3.0 mg/kg bw daily for 104 wk, study duration 104 wk): inactive; negative

SMILES: Cc1c(O)cc2c(c1C)OC(C)(CCCC(C)CCCC(C)CCCC(C)C)CC2 (stereo unspecified)
- carcinogen call (Species: MOUSE, Strain/Sex: 6HF1/MALE, Route: ORAL, Dose: 0, 5% IN BASAL DIET FOR 104 WK (STUDY DURATION: 104 WK), Tumor Site: Type of Lesion: LIVER: TUMOR): active; positive

SMILES: C[CH2][Pb]([CH2]C)([CH2]C)[CH2]C
- carcinogen call (Species: MOUSE, Strain/Sex: ICR/FEMALE, Route: SUBCUTANEOUS, Dose: 0, 0.1 MG IN TRICAPRYLIN AT DAYS 1 AND 7 OF AGE AND 0, 0.2 MG AT DAYS 14 AND 21 OF AGE FOR A TOTAL DOSE OF 0, 0.6 MG (ST, Dose: 0, 0.1 MG IN TRICAPRYLIN AT DAYS 1 AND 7 OF AGE AND 0, 0.2 MG AT DAYS 14 AND 21 OF AGE FOR A TOTAL DOSE OF 0, 0.6 MG (ST, Tumor Site: Type of Lesion: HEMATOPOIETIC SYSTEM: LYMPHOMA): active; positive
- carcinogen call (Species: MOUSE, Strain/Sex: ICR/MALE, Route: SUBCUTANEOUS, Dose: 0, 0.1 MG IN TRICAPRYLIN ON DAYS 1 AND 7 OF AGE AND 0, 0.2 MG ON DAYS 14 AND 21 OF AGE FOR A TOTAL DOSE OF 0, 0.6 MG (ST, Dose: 0, 0.1 MG IN TRICAPRYLIN ON DAYS 1 AND 7 OF AGE AND 0, 0.2 MG ON DAYS 14 AND 21 OF AGE FOR A TOTAL DOSE OF 0, 0.6 MG (ST): inactive; negative

SMILES: Oc1cc2c(c3ccc4ccccc4c13)CCC2
- carcinogen call (Species: MOUSE, Strain/Sex: TO/MALE, FEMALE, Route: DERMAL, Dose: 0, 50 UG (10 µL OF A 0.5% W/V TOLUENE SOLUTION) 2/WK FOR 70 WK (STUDY DURATION: 70 WK), Tumor Site: Type of Lesion: SKIN: PAPILLOMA OR CARCINOMA): active; positive

SMILES: Cn1c(CCCC(=O)O)nc2cc(N(CCCl)CCCl)ccc21
- carcinogen call (Species: MOUSE, Strain/Sex: AB/JENA/FEMALE, Route: INTRAPERITONEAL, Dose: 0, 12.5, 25 MG/KG IN 2 ML SALINE 1/D FOR 4 D FOR A TOTAL DOSE OF 0, 50, 100 MG/KG, Dose: 0, 12.5, 25 MG/KG IN 2 ML SALINE 1/D FOR 4 D FOR A TOTAL DOSE OF 0, 50, 100 MG/KG, Tumor Site: Type of Lesion: PERITONEUM: SARCOMA): active; positive
- carcinogen call (Species: MOUSE, Strain/Sex: AB/JENA/FEMALE, Route: ORAL, Dose: 0, 62.5 MG/KG IN 0.25 ML WATER 1/D FOR 4 D FOR A TOTAL DOSE OF 0, 250 MG/KG, Dose: 0, 62.5 MG/KG IN 0.25 ML WATER 1/D FOR 4 D FOR A TOTAL DOSE OF 0, 250 MG/KG, Tumor Site: Type of Lesion: LUNG: ADENOMA): active; positive

SMILES: Cc1cc(C)c(N)cc1C
- carcinogen call (Species: MOUSE, Strain/Sex: B6C3F1/FEMALE, Route: ORAL, Dose: 0, 50, 100 PPM IN DIET FOR 101 WK (STUDY DURATION: 101 WK), Dose: 0, 50, 100 PPM IN DIET FOR 101 WK (STUDY DURATION: 101 WK), Tumor Site: Type of Lesion: LIVER: HEPATOCELLULAR CARCINOMA): active; positive
- carcinogen call (Species: MOUSE, Strain/Sex: B6C3F1/MALE, Route: ORAL, Dose: 0, 50, 100 PPM IN DIET FOR 101 WK (STUDY DURATION: 101 WK), Dose: 0, 50, 100 PPM IN DIET FOR 101 WK (STUDY DURATION: 101 WK), Tumor Site: Type of Lesion: LIVER: HEPATOCELLULAR CARCINOMA): equivocal
- carcinogen call (Species: RAT, Strain/Sex: F344/FEMALE, Route: ORAL, Dose: 0, 200, 800 PPM IN DIET FOR 101 WK (STUDY DURATION: 101 WK), Dose: 0, 200, 800 PPM IN DIET FOR 101 WK (STUDY DURATION: 101 WK), Tumor Site: Type of Lesion: LUNG: ALVEOLAR/BRONCHIOLAR ADENOMA OR CARCINOMA, LIVER: HEPATOCELLULAR CARCINOMA OR NEOPLASTIC NODULE): active; positive
- carcinogen call (Species: RAT, Strain/Sex: F344/MALE, Route: ORAL, Dose: 0, 200, 800 PPM IN DIET FOR 101 WK (STUDY DURATION: 101 WK), Dose: 0, 200, 800 PPM IN DIET FOR 101 WK (STUDY DURATION: 101 WK), Tumor Site: Type of Lesion: LIVER: BILE DUCT CARCINOMA, HEPATOCELLULAR CARCINOMA OR NEOPLASTIC NODULE): active; positive

SMILES: COC(=O)Nc1nc2ccccc2[nH]1
- carcinogen call (Species: Mouse, Strain/Sex: CD-1/Female (80/sex/dose), Route: Oral, Dose: 0, 500, 1500, 7500 ppm in feed for 2 yr, Dose: 0, 500, 1500, 7500 ppm in feed for 2 yr, Tumor Site: Type of Lesion: Liver: Hepatocellular adenoma (0/68, 5/62, 5/66, 3/71), Hepatocellular carcinoma (2/68, 4/62, 15/66, 12/71), Combined (2, Tumor Site: Type of Lesion: Liver: Hepatocellular adenoma (0/68, 5/62, 5/66, 3/71), Hepatocellular carcinoma (2/68, 4/62, 15/66, 12/71), Combined (2): active; positive: purity 99.3%
- carcinogen call (Species: Mouse, Strain/Sex: CD-1/Male (80/sex/dose); Route: Oral; Dose: 0; 500; 1500; 7500 ppm in feed for 2 yr except for highest dose where animals terminated at week 73 with 29% survival); Dose: 0; 500; 1500; 7500 ppm in feed for 2 yr except for highest dose where animals terminated at week 73 with 29% survival)): inactive; negative: purity 99.3%
